Where “and” joins values, the source holds several entries; their conditions need not be identical. Identical values can stand only once.
Key:
[1] = biological target: Chromatin remodeling regulator CECR2 (Homo sapiens) (UniProt Q9BXF3); conditions: Compound concentration 10.0 uM
[2] = biological target: Protein polybromo-1 (Homo sapiens) (UniProt Q86U86); conditions: Compound concentration 10.0 uM
[3] = biological target: PH-interacting protein (Homo sapiens) (UniProt Q8WWQ0); conditions: Compound concentration 50.0 uM, Protein concentration 0.025 uM
[4] = biological target: Bromodomain-containing protein 9 (Homo sapiens) (UniProt Q9H8M2); conditions: Compound concentration 10.0 uM
Sequence of Bromodomain-containing protein 9 (Homo sapiens) (Q9H8M2 whole entry): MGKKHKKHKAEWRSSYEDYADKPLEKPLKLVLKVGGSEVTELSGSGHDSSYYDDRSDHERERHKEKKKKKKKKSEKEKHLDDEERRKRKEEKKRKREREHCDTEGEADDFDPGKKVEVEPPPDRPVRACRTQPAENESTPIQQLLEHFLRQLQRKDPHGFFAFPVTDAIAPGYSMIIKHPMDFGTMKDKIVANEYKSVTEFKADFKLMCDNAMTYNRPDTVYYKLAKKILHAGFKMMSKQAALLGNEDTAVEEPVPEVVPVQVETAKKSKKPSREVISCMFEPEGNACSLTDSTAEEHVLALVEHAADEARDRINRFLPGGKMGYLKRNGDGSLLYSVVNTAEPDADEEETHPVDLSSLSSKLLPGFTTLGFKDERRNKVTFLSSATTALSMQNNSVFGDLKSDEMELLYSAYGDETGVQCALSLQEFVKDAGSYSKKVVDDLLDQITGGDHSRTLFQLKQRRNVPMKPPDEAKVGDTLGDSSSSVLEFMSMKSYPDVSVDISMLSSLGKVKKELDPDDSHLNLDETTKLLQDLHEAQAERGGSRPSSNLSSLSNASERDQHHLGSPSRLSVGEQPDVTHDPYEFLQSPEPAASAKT

[5] = biological target: Bromodomain-containing protein 3 (Homo sapiens) (UniProt Q15059); conditions: Compound concentration 10.0 uM
[6] = biological target: Chromatin remodeling regulator CECR2 (Homo sapiens) (UniProt Q9BXF3); conditions: Compound concentration 10.0 uM; remark: listed apart in the source
[7] = biological target: Transcription initiation factor TFIID subunit 1-like (Homo sapiens) (UniProt Q8IZX4); conditions: Compound concentration 10.0 uM
[8] = biological target: Bromodomain-containing protein 1 (Homo sapiens, UniProt O95696)
[9] = biological target: Nuclear body protein SP140 (Homo sapiens) (UniProt Q13342); conditions: Compound concentration 10.0 uM
[10] = biological target: ATPase family AAA domain-containing protein 2 (Homo sapiens) (UniProt Q6PL18); conditions: Compound concentration 10.0 uM
[11] = biological target: Chromatin remodeling regulator CECR2 (Homo sapiens) (UniProt Q9BXF3); conditions: Compound concentration 25.0 uM, Protein concentration 19.0 uM
[12] = biological target: SWI/SNF-related matrix-associated actin-dependent regulator of chromatin subfamily A member 4 (Homo sapiens) (UniProt P51532); conditions: Compound concentration 10.0 uM
[13] = biological target: Transcription initiation factor TFIID subunit 1 (Homo sapiens) (UniProt P21675); conditions: Compound concentration 10.0 uM
[14] = biological target: Bromodomain testis-specific protein (Homo sapiens) (UniProt Q58F21); conditions: Compound concentration 10.0 uM
[15] = biological target: Histone acetyltransferase KAT2B (Homo sapiens) (UniProt Q92831); conditions: Compound concentration 10.0 uM
[16] = biological target: Bromodomain adjacent to zinc finger domain protein 2B (Homo sapiens) (UniProt Q9UIF8); conditions: Compound concentration 10.0 uM
[17] = biological target: Bromodomain-containing protein 2 (Homo sapiens) (UniProt P25440); conditions: Compound concentration 10.0 uM
[18] = biological target: Bromodomain-containing protein 4 (Homo sapiens) (UniProt O60885); conditions: Compound concentration 10.0 uM
[19] = biological target: Tyrosine-protein kinase BAZ1B (Homo sapiens) (UniProt Q9UIG0); conditions: Compound concentration 10.0 uM
[20] = biological target: ATPase family AAA domain-containing protein 2 (Homo sapiens) (UniProt Q6PL18); conditions: Compound concentration 25.0 uM, Protein concentration 225.0 uM
Description: Alphascreen assay. Domain start/stop: Q981-R1108

[21] = biological target: Bromodomain and WD repeat-containing protein 3 (Homo sapiens) (UniProt Q6RI45); conditions: Compound concentration 10.0 uM
[22] = biological target: Nucleosome-remodeling factor subunit BPTF (Homo sapiens) (UniProt Q12830); conditions: Compound concentration 25.0 uM, Protein concentration 19.0 uM
Description: Alphascreen assay. Domain start/stop: S2791-H2911

[23] = biological target: Protein polybromo-1 (Homo sapiens) (UniProt Q86U86); conditions: Compound concentration 10.0 uM; remark: listed apart in the source
[24] = biological target: Nucleosome-remodeling factor subunit BPTF (Homo sapiens) (UniProt Q12830); conditions: Compound concentration 10.0 uM
[25] = biological target: CREB-binding protein (Homo sapiens) (UniProt Q92793); conditions: Compound concentration 5.0 uM
Description: Alphascreen assay. Domain start/stop: R1081-G1197

[26] = biological target: Transcription initiation factor TFIID subunit 1-like (Homo sapiens) (UniProt Q8IZX4); conditions: Compound concentration 10.0 uM; remark: listed apart in the source
[27] = biological target: Transcription intermediary factor 1-alpha (Homo sapiens) (UniProt O15164); conditions: Compound concentration 10.0 uM
Sequence of Transcription intermediary factor 1-alpha (Homo sapiens) (O15164 whole entry): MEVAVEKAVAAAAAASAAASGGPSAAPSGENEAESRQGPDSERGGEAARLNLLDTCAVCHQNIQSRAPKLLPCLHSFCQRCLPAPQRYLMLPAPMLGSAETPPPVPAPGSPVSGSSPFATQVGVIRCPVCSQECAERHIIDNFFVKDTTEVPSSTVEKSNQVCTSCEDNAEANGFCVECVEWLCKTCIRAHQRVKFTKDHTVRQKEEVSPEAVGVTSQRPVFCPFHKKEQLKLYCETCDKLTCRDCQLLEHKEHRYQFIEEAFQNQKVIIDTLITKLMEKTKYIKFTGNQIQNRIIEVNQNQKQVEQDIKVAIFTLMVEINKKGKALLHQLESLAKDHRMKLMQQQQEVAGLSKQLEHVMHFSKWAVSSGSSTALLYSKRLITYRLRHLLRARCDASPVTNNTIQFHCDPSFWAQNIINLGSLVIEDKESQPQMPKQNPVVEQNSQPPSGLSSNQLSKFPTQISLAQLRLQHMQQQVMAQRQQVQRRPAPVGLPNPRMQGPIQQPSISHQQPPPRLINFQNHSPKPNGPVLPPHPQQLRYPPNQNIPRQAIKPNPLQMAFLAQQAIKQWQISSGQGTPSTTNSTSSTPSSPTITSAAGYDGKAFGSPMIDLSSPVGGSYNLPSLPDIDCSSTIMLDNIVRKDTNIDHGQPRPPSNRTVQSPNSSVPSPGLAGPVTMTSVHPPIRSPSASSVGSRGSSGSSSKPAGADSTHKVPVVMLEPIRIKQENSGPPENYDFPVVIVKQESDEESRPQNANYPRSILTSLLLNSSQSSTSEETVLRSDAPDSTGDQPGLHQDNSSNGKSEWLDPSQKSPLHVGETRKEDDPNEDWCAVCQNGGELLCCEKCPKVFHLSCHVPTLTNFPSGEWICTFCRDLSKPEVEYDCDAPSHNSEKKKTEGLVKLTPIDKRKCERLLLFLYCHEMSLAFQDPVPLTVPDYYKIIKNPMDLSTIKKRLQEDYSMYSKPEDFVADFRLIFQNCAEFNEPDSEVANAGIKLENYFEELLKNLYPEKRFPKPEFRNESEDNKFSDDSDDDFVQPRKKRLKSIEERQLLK

[28] = biological target: Nuclear body protein SP140-like protein (Homo sapiens) (UniProt Q9H930); conditions: Compound concentration 10.0 uM
[29] = biological target: Bromodomain and PHD finger-containing protein 3 (Homo sapiens) (UniProt Q9ULD4); conditions: Compound concentration 10.0 uM
[30] = biological target: Bromodomain-containing protein 3 (Homo sapiens) (UniProt Q15059); conditions: Compound concentration 10.0 uM; remark: listed apart in the source
Peregrin (Homo sapiens) [31] = biological target: Peregrin (Homo sapiens) (UniProt P55201); conditions: Compound concentration 10.0 uM
[32] = biological target: PH-interacting protein (Homo sapiens) (UniProt Q8WWQ0); conditions: Compound concentration 10.0 uM
[33] = biological target: Histone acetyltransferase KAT2A (Homo sapiens) (UniProt Q92830); conditions: Compound concentration 10.0 uM
[34] = biological target: Bromodomain-containing protein 9 (Homo sapiens) (UniProt Q9H8M2); conditions: Compound concentration 10.0 uM; remark: listed apart in the source
Description: Thermal Shift Assay. Domain start/stop: L14-S134

[35] = biological target: SWI/SNF-related matrix-associated actin-dependent regulator of chromatin subfamily A member 2 (Homo sapiens) (UniProt P51531); conditions: Compound concentration 10.0 uM
[36] = biological target: Transcription intermediary factor 1-alpha (Homo sapiens) (UniProt O15164); conditions: Compound concentration 10.0 uM; remark: listed apart in the source
Peregrin (Homo sapiens) [37] = biological target: Peregrin (Homo sapiens) (UniProt P55201); conditions: Compound concentration 10.0 uM; remark: listed apart in the source
[38] = biological target: Bromodomain-containing protein 2 (Homo sapiens) (UniProt P25440); conditions: Compound concentration 10.0 uM; remark: listed apart in the source
[39] = biological target: Histone-lysine N-methyltransferase ASH1L (Homo sapiens) (UniProt Q9NR48); conditions: Compound concentration 10.0 uM
[40] = biological target: Histone-lysine N-methyltransferase 2A (Homo sapiens) (UniProt Q03164); conditions: Compound concentration 10.0 uM
[41] = biological target: Bromodomain testis-specific protein (Homo sapiens) (UniProt Q58F21); conditions: Compound concentration 10.0 uM; remark: listed apart in the source
[42] = biological target: Bromodomain-containing protein 1 (Homo sapiens) (UniProt O95696); conditions: Compound concentration 10.0 uM
[43] = biological target: Protein polybromo-1 (Homo sapiens) (UniProt Q86U86); conditions: Compound concentration 10.0 uM; remark: listed apart in the source
[44] = biological target: ATPase family AAA domain-containing protein 2B (Homo sapiens) (UniProt Q9ULI0); conditions: Compound concentration 10.0 uM
[45] = biological target: CREB-binding protein (Homo sapiens) (UniProt Q92793); conditions: Compound concentration 10.0 uM
Peregrin = Peregrin (Homo sapiens, UniProt P55201); test: Alphascreen assay. Binding to BRPF1B (domain start/stop: M626-G740) by alphascreen assay
[46] = biological target: Bromodomain adjacent to zinc finger domain protein 1A (Homo sapiens) (UniProt Q9NRL2); conditions: Compound concentration 10.0 uM
[47] = biological target: Transcription initiation factor TFIID subunit 1 (Homo sapiens) (UniProt P21675); conditions: Compound concentration 10.0 uM; remark: listed apart in the source
[48] = biological target: Histone acetyltransferase p300 (Homo sapiens) (UniProt Q09472); conditions: Compound concentration 10.0 uM
[49] = biological target: Protein polybromo-1 (Homo sapiens) (UniProt Q86U86); conditions: Compound concentration 10.0 uM; remark: listed apart in the source
[50] = biological target: Transcription intermediary factor 1-beta (Homo sapiens) (UniProt Q13263); conditions: Compound concentration 10.0 uM
[51] = biological target: Bromodomain-containing protein 1 (Homo sapiens) (UniProt O95696); conditions: Compound concentration 25.0 uM, Protein concentration 50.0 uM
Description: Alphascreen assay. Domain start/stop: E556-A688

[52] = biological target: Bromodomain-containing protein 7 (Homo sapiens) (UniProt Q9NPI1); conditions: Compound concentration 10.0 uM
[53] = biological target: Protein polybromo-1 (Homo sapiens) (UniProt Q86U86); conditions: Compound concentration 10.0 uM; remark: listed apart in the source
[54] = biological target: Bromodomain-containing protein 4 (Homo sapiens) (UniProt O60885); conditions: Compound concentration 10.0 uM; remark: listed apart in the source
[55] = biological target: Bromodomain adjacent to zinc finger domain protein 2A (Homo sapiens) (UniProt Q9UIF9); conditions: Compound concentration 10.0 uM
[56] = biological target: Bromodomain and WD repeat-containing protein 1 (Homo sapiens) (UniProt Q9NSI6); conditions: Compound concentration 10.0 uM
[57] = biological target: E3 ubiquitin-protein ligase TRIM33 (Homo sapiens) (UniProt Q9UPN9); conditions: Compound concentration 25.0 uM
[58] = biological target: Protein polybromo-1 (Homo sapiens) (UniProt Q86U86); conditions: Compound concentration 10.0 uM; remark: listed apart in the source

Sequence of Protein polybromo-1 (Homo sapiens) (Q86U86 whole entry, the tested form may be a part): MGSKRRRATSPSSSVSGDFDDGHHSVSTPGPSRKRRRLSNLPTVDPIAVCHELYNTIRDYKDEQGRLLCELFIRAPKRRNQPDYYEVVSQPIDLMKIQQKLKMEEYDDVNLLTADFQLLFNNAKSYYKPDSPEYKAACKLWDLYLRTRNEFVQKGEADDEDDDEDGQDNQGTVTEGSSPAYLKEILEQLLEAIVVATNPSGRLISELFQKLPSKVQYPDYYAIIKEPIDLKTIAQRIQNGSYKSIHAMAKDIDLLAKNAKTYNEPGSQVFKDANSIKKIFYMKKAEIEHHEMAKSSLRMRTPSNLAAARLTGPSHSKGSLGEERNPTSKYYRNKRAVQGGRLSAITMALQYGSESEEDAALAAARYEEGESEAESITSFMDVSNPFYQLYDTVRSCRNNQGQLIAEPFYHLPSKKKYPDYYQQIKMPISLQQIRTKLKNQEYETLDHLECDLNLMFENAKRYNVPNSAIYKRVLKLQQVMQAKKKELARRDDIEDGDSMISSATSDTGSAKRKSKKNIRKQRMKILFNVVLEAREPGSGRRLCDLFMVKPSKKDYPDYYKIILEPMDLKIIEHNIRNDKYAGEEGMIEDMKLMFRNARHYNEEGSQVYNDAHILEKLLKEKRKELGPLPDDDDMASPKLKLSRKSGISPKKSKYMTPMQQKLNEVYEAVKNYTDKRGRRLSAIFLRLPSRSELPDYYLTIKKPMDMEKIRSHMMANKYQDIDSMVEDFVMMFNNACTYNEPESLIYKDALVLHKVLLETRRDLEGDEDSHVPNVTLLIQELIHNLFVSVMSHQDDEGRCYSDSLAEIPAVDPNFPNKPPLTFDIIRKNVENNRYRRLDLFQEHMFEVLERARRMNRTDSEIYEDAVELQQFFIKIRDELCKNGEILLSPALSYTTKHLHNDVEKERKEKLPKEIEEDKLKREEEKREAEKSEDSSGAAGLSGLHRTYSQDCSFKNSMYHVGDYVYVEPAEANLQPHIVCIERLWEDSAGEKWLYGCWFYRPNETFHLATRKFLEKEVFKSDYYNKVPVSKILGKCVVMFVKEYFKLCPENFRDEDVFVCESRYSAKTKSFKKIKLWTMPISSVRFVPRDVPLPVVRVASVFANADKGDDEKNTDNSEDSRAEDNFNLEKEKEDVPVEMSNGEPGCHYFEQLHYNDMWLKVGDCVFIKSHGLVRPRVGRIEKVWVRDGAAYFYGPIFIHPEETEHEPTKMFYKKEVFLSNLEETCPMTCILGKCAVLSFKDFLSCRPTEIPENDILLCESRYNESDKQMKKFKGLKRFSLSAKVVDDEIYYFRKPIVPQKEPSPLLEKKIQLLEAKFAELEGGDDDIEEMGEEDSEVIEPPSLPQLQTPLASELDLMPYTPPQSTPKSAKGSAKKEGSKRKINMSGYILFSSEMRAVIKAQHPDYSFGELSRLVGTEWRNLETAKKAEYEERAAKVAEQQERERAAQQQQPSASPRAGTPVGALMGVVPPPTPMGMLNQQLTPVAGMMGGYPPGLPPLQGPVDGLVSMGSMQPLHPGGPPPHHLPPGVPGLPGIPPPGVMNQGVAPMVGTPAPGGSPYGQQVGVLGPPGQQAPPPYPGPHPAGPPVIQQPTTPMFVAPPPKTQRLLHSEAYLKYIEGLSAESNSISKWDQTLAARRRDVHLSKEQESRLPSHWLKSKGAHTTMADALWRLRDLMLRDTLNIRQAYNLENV
Sequence of Chromatin remodeling regulator CECR2 (Homo sapiens) (Q9BXF3 whole entry, looked up): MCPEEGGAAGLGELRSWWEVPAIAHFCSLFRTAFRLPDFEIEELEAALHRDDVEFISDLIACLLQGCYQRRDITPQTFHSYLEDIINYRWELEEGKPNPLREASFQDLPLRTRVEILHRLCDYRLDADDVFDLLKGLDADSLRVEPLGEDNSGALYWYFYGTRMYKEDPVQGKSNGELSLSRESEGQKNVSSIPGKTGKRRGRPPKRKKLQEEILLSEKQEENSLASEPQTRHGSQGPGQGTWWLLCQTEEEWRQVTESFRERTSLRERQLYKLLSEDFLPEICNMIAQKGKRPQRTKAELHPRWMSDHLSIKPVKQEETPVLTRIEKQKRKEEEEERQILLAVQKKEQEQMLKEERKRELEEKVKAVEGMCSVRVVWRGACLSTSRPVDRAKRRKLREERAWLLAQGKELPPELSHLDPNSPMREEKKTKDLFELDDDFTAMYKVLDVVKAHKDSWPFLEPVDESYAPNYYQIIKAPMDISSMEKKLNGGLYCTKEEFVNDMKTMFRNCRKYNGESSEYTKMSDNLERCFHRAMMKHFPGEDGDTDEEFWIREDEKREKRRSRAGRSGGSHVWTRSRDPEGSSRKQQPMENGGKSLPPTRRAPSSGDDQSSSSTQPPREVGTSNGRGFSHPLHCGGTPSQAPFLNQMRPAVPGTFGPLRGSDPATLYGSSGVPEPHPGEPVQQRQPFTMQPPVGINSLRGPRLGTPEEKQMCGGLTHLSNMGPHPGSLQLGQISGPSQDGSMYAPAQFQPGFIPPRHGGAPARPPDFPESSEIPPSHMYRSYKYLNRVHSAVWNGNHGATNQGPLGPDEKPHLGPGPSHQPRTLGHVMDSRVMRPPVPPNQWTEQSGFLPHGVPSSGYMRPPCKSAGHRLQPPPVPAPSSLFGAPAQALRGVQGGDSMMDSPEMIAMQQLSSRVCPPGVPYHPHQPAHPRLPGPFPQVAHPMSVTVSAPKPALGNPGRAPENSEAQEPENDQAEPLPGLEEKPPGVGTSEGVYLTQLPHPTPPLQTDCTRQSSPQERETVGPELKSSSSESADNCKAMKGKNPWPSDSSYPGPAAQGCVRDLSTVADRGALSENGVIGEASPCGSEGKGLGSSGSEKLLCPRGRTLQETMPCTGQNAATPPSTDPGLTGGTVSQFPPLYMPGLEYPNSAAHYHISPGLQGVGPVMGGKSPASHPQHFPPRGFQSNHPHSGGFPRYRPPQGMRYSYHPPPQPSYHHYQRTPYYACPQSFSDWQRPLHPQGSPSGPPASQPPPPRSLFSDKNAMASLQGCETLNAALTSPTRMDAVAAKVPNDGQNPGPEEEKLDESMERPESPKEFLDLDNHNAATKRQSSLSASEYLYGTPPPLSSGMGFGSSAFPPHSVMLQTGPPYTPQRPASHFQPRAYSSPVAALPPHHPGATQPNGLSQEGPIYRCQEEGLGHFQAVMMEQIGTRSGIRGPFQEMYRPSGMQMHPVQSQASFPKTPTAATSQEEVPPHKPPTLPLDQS

**Q.** How did the ΔTm [1] turn out when `COc1cc(C#N)ccc1S(=O)(=O)Nc1ccc2c(c1)cc(C)c(=O)n2C` was run?
**A.** Its ΔTm is 0.43 °C.

**Q.** What about the ΔTm [2] of the same molecule?
**A.** Its ΔTm is 0.3 °C.

**Q.** And the inhibition [3]?
**A.** The inhibition was 6.61% and 8.15%.

**Q.** And the ΔTm [4]?
**A.** The ΔTm was 4.57 °C and 3.61 °C.

**Q.** What about the ΔTm [5] of the same molecule?
**A.** The ΔTm was 0.83 °C.

**Q.** And the ΔTm [6]?
**A.** The ΔTm was 0.42 °C.

**Q.** What about the ΔTm [7] of the same molecule?
**A.** The ΔTm was 0.72 °C.

**Q.** And the IC50 [8]?
**A.** Its IC50 is 315 nM.

**Q.** And the ΔTm [9]?
**A.** Its ΔTm is 1.1 °C.

**Q.** And the ΔTm [10]?
**A.** Its ΔTm is -0.43 °C.

**Q.** And the inhibition [11]?
**A.** The inhibition was 35.4%.

**Q.** What about the ΔTm [12] of the same molecule?
**A.** Its ΔTm is 0.38 °C.

**Q.** And the ΔTm [13]?
**A.** Its ΔTm is 0.4 °C.

**Q.** And the ΔTm [14]?
**A.** The ΔTm was 0.25 °C.

**Q.** And the ΔTm [15]?
**A.** The ΔTm was 0.53 °C.

**Q.** What about the ΔTm [16] of the same molecule?
**A.** Its ΔTm is 0.1 °C.

**Q.** What about the ΔTm [17] of the same molecule?
**A.** The ΔTm was 0.11 °C.

**Q.** What about the ΔTm [18] of the same molecule?
**A.** The ΔTm was 0.93 °C and 1.25 °C.

**Q.** And the ΔTm [19]?
**A.** The ΔTm was 0.4 °C.

**Q.** What about the inhibition [20] of the same molecule?
**A.** Its inhibition is 4.03%.

**Q.** What about the ΔTm [21] of the same molecule?
**A.** Its ΔTm is 2.08 °C.

**Q.** What about the inhibition [22] of the same molecule?
**A.** The inhibition was 49.2%.

**Q.** What about the ΔTm [23] of the same molecule?
**A.** The ΔTm was 0.5 °C.

**Q.** And the ΔTm [24]?
**A.** Its ΔTm is 0.31 °C.

**Q.** And the inhibition [25]?
**A.** The inhibition was 4.5%.

**Q.** What about the ΔTm [26] of the same molecule?
**A.** The ΔTm was 0.81 °C.

**Q.** What about the ΔTm [27] of the same molecule?
**A.** Its ΔTm is 2.11 °C and 2.01 °C.

**Q.** And the ΔTm [28]?
**A.** The ΔTm was 1.35 °C.

**Q.** And the ΔTm [29]?
**A.** Its ΔTm is 5.43 °C.

**Q.** And the ΔTm [30]?
**A.** Its ΔTm is 0.17 °C.

**Q.** And the ΔTm (Peregrin (Homo sapiens) [31])?
**A.** Its ΔTm is 12.3 °C and 10.8 °C.

**Q.** What about the ΔTm [32] of the same molecule?
**A.** Its ΔTm is -2.61 °C.

**Q.** And the ΔTm [33]?
**A.** The ΔTm was 0.45 °C.

**Q.** And the ΔTm [34]?
**A.** The ΔTm was 5.4 °C.

**Q.** And the ΔTm [35]?
**A.** The ΔTm was 0.58 °C.

**Q.** What about the ΔTm [36] of the same molecule?
**A.** Its ΔTm is 1.64 °C.

**Q.** What about the ΔTm (Peregrin (Homo sapiens) [37]) of the same molecule?
**A.** Its ΔTm is 1.19 °C.

**Q.** And the ΔTm [38]?
**A.** Its ΔTm is 0.62 °C.

**Q.** And the ΔTm [39]?
**A.** Its ΔTm is 0.15 °C.

**Q.** And the ΔTm [40]?
**A.** The ΔTm was 0.47 °C.

**Q.** And the ΔTm [41]?
**A.** The ΔTm was 0.32 °C.

**Q.** And the ΔTm [42]?
**A.** Its ΔTm is 5.67 °C.

**Q.** And the ΔTm [43]?
**A.** Its ΔTm is 0.58 °C.

**Q.** What about the ΔTm [44] of the same molecule?
**A.** The ΔTm was -0.01 °C.

**Q.** And the ΔTm [45]?
**A.** The ΔTm was 0.49 °C and 1.24 °C.

**Q.** What about the IC50 (Peregrin) of the same molecule?
**A.** Its IC50 is 47.2 nM.

**Q.** And the ΔTm [46]?
**A.** Its ΔTm is 0.38 °C.

**Q.** What about the ΔTm [47] of the same molecule?
**A.** Its ΔTm is 0.55 °C.

**Q.** And the ΔTm [48]?
**A.** The ΔTm was 1.15 °C.

**Q.** And the ΔTm [49]?
**A.** The ΔTm was 0.79 °C.

**Q.** What about the ΔTm [50] of the same molecule?
**A.** Its ΔTm is 1.21 °C.

**Q.** What about the inhibition [51] of the same molecule?
**A.** The inhibition was 99.7%.

**Q.** What about the ΔTm [52] of the same molecule?
**A.** Its ΔTm is 6.81 °C.

**Q.** And the ΔTm [53]?
**A.** Its ΔTm is 0.79 °C.

**Q.** What about the ΔTm [54] of the same molecule?
**A.** Its ΔTm is 0.14 °C.

**Q.** What about the ΔTm [55] of the same molecule?
**A.** Its ΔTm is -0.24 °C.

**Q.** What about the ΔTm [56] of the same molecule?
**A.** Its ΔTm is 0.74 °C.

**Q.** What about the inhibition [57] of the same molecule?
**A.** Its inhibition is 9.82%.

**Q.** And the ΔTm [58]?
**A.** Its ΔTm is 0.3 °C.

From ChEMBL document CHEMBL4649989, “Design of a Chemical Probe for the Bromodomain and Plant Homeodomain Finger-Containing (BRPF) Family of Proteins” (J Med Chem, 2017)
